{"source": "paper PMC4822888", "about": "“Subtype-Selective Small Molecule Inhibitors Reveal a Fundamental Role for Nav1.7 in Nociceptor Electrogenesis, Axonal Conduction and Presynaptic Release” (PLoS ONE, 2016)", "key": {"[1]": {"tested_on": "substantia gelatinosa (SG) neurons", "assay": "Current clamp action potentials in SG neurons of mouse spinal cord slices", "format": "cell-based", "conditions": "30 nM"}, "[2]": {"tested_on": "small diameter mouse DRG neurons", "format": "cell-based"}, "mouse Nav1.1": {"target": "mouse Nav1.1 (Mus musculus, UniProt A2APX8)", "format": "cell-based", "conditions": "recombinant mouse Nav1.1"}, "[3]": {"tested_on": "synaptosomes prepared from L4/L5 spinal cord sections", "design": "species or system mouse", "experimental": "A lumbosacral laminectomy was performed and a segment of lumbar spinal cord was removed into a petri dish containing ice-cold pre-oxygenated aCSF. The dura mater, ventral and dorsal roots and the pia-arachnoid membrane were removed. A small segment of the spinal cord containing only the lumbar region (L4–L5) was dissected free, weighed and placed into ice-cold homogenization buffer composition (mM) 0.32 M sucrose, 10 mM HEPES (pH 7.4, bubbled with 100% O2). Spinal cord tissue was homogenized in buffer using 20 strokes of a glass/glass hand homogenizer. The crude homogenate was diluted with 3 mL of ice-cold homogenization buffer and centrifuged at 1000 x g for 5 mins at 4°C. Synaptosomes were isolated from the supernatant by an additional centrifugation at 20,000 x g for 2 mins at 4°C. The synaptosomal pellet was resuspended in 3 mL of Krebs buffer with composition (in mM): NaCl 118, KCl 2.4, CaCl2 2.4, MgSO4 1.2, KH2PO4 1.2, NaHCO3 25, glucose 10, pH 7.4 (bubbled with 95% O2 and 5% CO2). Protein quantification was performed on the synaptosomal solution using the Bradford colorimetric protein assay and bovine serum albumin standards. Samples were diluted to obtain a final concentration of 0.1 mg mL^-1 for CGRP evaluation and 100 μL samples of the synaptosomal solution was pipetted into eppendorfs. Synaptosomes were incubated at 37°C for 10 mins in the presence of test compounds or DMSO (1 μl total volume). Synaptosomes were stimulated using Veratridine 10 μM in the presence of Thiorphan (10 μM) and incubated for a further 10 mins at 37°C. Samples were then filtered using […] filters and 100 μl of the filtrate was transferred to CGRP ELISA plate (Bertin Pharma) and assayed according to the manufactures instructions."}, "mouse Nav1.7": {"target": "mouse Nav1.7 (Mus musculus, UniProt Q62205)", "sequence (Q62205 whole entry)": "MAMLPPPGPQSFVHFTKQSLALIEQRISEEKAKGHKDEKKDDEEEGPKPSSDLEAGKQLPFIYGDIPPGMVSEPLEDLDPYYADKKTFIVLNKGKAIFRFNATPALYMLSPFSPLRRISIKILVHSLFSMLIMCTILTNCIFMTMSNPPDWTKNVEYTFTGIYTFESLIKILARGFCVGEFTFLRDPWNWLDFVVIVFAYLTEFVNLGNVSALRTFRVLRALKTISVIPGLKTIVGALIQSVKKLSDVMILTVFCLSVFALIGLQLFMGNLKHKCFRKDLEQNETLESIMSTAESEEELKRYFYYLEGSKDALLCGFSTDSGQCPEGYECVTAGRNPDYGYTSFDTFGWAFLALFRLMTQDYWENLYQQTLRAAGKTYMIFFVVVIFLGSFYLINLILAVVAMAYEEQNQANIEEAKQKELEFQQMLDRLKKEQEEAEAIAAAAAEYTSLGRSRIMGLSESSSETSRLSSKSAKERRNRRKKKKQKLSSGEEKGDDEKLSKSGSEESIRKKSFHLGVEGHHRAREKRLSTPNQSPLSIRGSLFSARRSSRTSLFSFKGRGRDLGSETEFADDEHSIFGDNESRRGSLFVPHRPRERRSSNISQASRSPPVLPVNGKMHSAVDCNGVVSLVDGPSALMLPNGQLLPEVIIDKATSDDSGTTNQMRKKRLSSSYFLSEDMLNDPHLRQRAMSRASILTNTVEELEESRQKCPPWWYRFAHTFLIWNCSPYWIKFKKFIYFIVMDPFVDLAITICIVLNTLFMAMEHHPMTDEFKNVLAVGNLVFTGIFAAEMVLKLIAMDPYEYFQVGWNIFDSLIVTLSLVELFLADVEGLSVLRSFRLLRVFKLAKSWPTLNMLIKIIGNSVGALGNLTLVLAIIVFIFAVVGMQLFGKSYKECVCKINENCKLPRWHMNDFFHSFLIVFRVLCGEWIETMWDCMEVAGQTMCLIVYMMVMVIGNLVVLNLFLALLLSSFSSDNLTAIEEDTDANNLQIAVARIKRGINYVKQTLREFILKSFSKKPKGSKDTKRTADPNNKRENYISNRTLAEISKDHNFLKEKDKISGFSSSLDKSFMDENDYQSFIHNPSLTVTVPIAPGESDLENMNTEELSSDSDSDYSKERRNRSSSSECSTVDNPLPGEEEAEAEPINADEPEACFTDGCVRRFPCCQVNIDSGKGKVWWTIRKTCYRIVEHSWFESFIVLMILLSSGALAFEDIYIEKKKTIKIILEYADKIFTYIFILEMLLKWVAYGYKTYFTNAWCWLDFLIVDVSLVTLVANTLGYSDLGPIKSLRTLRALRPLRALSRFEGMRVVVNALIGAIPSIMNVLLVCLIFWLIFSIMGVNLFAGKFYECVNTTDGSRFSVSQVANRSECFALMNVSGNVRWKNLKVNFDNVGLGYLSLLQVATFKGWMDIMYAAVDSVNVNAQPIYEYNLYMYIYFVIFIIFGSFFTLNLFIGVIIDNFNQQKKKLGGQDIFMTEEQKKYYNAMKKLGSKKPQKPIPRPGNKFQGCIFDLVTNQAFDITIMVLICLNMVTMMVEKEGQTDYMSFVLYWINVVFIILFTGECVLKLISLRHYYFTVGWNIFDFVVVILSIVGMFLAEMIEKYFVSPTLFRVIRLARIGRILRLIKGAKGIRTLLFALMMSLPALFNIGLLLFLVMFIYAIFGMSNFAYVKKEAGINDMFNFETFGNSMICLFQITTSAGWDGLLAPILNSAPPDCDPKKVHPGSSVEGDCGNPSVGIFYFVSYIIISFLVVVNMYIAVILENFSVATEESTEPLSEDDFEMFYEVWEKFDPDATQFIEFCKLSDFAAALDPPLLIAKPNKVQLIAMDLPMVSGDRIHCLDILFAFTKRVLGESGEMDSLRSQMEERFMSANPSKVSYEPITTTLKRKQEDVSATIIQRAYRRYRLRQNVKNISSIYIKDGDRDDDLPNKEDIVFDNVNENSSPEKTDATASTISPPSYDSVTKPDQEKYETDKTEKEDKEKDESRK", "format": "cell-based"}, "WT mice": {"tested_on": "WT mice", "assay": "Capsaicin flare response in WT mice", "format": "in vivo, mouse", "conditions": "55 mins, vehicle 4930 ± 751"}, "[4]": {"tested_on": "small diameter mouse DRG neurons", "assay": "Current clamp of action potentials in small diameter mDRG neurons", "format": "cell-based", "experimental": "Dorsal root ganglia (DRG) were isolated and dissociated according to a previously published method. Briefly, DRGs were obtained from all spinal locations and dissociated neurons plated on glass coverslips pre-coated with poly-D-lysine/laminin (BD Biosciences) and left to adhere for 1.5–2 hrs before flooding. Growth media consisted of Lebovitz L-15 Glutamax (Life Technologies) supplemented with 10% FCS, 24 mM NaHCO3 and 38 mM glucose.\nElectrophysiological recordings were obtained from stably transfected HEK 293 cells, acutely dissociated mouse DRG neurons, cultured human DRG neurons or mouse superficial dorsal horn neurons using either an Axopatch 200B or […] amplifier (Molecular Devices), or EPC-10 USB amplifier (HEKA). Small diameter mouse DRG neurons were identified as those with a whole cell capacitance between 10–25 pF [17]. For human DRG neurons, patch clamp recordings were obtained from small-to-medium diameter neurons (<60 μm), the majority of which have previously been classified as nociceptors.\nECS contained (in mM) 135 NaCl, 4.7 KCl, 1 CaCl2, 1 MgCl2, 10 HEPES and 10 glucose (300–310 mOsm, pH 7.4 with NaOH). ICS contained (in mM) 140 KCl, 0.5 EGTA, 5 HEPES, and 3 Mg-ATP, (pH 7.3 with KOH, 300–305 mOsm). Single action potentials were evoked from Vm -70 mV by a 20 ms suprathreshold current step (0.1 Hz)."}, "mDRG neurons": {"tested_on": "mDRG neurons", "assay": "Action potential voltage clamp in mDRG neurons", "format": "cell-based, mouse", "conditions": "30 nM, p < 0.05", "experimental": "Recordings were performed as described in Blair & Bean (2002). Briefly, the internal solution contained (in mM): 140 K-Mes, 13.5 NaCl, 1.6 MgCl2, 0.09 EGTA, 9 HEPES, 0.9 glucose, 14 Tris-creatine PO4, 4 Mg-ATP, and 0.3 Tris-GTP (285–300 mOsm, pH 7.2 with KOH). The ECS was identical to that used for current clamp recordings (see above). Action potentials were recorded in current clamp mode following a 20 ms current injection from a Vm of -70 mV. The same cell was then examined under voltage-clamp (-70 mV) whereby the recorded action potential was used as the voltage command. Series resistance was compensated for by up to 80%."}, "[5]": {"tested_on": "substantia gelatinosa (SG) neurons of the superficial dorsal horn", "assay": "cells", "conditions": "Mus musculus, Neuron"}, "[6]": {"tested_on": "substantia gelatinosa (SG) neurons of the superficial dorsal horn"}}, "note": "Where two headings read alike, the source gives them in different places.", "data": [{"smiles": "Nc1n[nH]cc1-c1cc(C(F)(F)F)ccc1Oc1cc(F)c(S(=O)(=O)Nc2cscn2)cc1Cl", "note": "[PF-05198007, 4-(2-(3-amino-1H-pyrazol-4-yl)-4-(trifluoromethyl)phenoxy)-5-chloro-2-fluoro-N-(thiazol-4-yl)benzenesulfonamide]", "values": [{"measurement": "Effect on action potentials evoked by injection of depolarizing current", "setting": "[1]", "value": "no effects"}, {"measurement": "Neurons with dorsal root evoked action potentials abolished", "setting": "[1]", "value": "8 out of 9"}, {"measurement": "Block of total TTX-S current", "setting": "[2]; 30 nM, in presence of A-803467", "value": "83.0 ± 2.7", "unit": "%"}, {"measurement": "Slope", "setting": "mouse Nav1.1", "value": 0.7}, {"measurement": "Veratridine evoked CGRP release", "setting": "[3]; 30 nM, p < 0.05", "value": "significantly reduced"}, {"measurement": "Veratridine evoked CGRP release", "setting": "[3]; 100 nM, p < 0.05", "value": "significantly reduced"}, {"measurement": "Slope", "setting": "mouse Nav1.7", "value": 1.1}, {"measurement": "Capsaicin flare response, AUC", "setting": "WT mice; 1 mg/kg oral", "value": "1967 ± 472"}, {"measurement": "Capsaicin flare response, AUC", "setting": "WT mice; 10 mg/kg oral", "value": "2265 ± 382"}, {"measurement": "Neurons with action potential failure (complete block)", "setting": "[4]; 30 nM, cells blocked/cells tested", "value": "6/13"}, {"measurement": "Spike amplitude", "setting": "[4]; control 43.0 ± 3.3 mV", "value": "37.7 ± 3.9", "unit": "mV"}, {"measurement": "Upstroke slope", "setting": "[4]; control 137 ± 19 mV/ms", "value": "86 ± 11", "unit": "mV/ms"}, {"measurement": "Action potential threshold", "setting": "[4]; control -27.8 ± 2.0 mV", "value": "-22.8 ± 1.6", "unit": "mV"}, {"measurement": "Action potential rheobase", "setting": "[4]; in presence of compound, control 173 ± 37 pA", "value": "239 ± 47", "unit": "pA"}, {"measurement": "Action potential rheobase after washout", "setting": "[4]; wash, control 173 ± 37 pA", "value": "176 ± 35", "unit": "pA"}, {"measurement": "Latency of inward current", "setting": "mDRG neurons", "value": "increased latency"}, {"measurement": "Peak amplitude of inward current", "setting": "mDRG neurons", "value": "decrease in the peak amplitude"}, {"measurement": "inhibition at 0.03 µM", "setting": "[5]; read-out: Inhibition of Aδ-fiber evoked EPSC amplitude", "value": "46.9 ± 5.4", "unit": "%"}, {"measurement": "inhibition at 0.03 µM", "setting": "[5]; read-out: Inhibition of C-fiber evoked EPSC amplitude", "value": "53.7 ± 10.1", "unit": "%"}, {"measurement": "inhibition at 0.03 µM", "setting": "[5]; read-out: Inhibition of C-fiber evoked EPSCs", "value": "87 ± 9", "unit": "%"}, {"measurement": "Latency of the C-fiber mediated EPSC", "setting": "[6]; 30 nM applied to the dorsal root only, p < 0.05", "value": "delay in the latency"}]}, {"smiles": "COc1cc(NC(=O)c2ccc(-c3ccc(Cl)cc3)o2)cc(OC)c1", "note": "[A-803467]", "values": [{"measurement": "Block of total Na+ current", "setting": "[2]; 1 μM, small diameter mDRG neurons", "value": "34.1 ± 3.0", "unit": "%"}]}, {"smiles": "NS(=O)(=O)c1cccc2c1c([N+](=O)[O-])cc1nc(O)c(O)nc12", "note": "[NBQX]", "values": [{"measurement": "Effect on Aδ and C fiber EPSCs", "setting": "[6]; 5 μM, data not shown", "value": "completely abolished"}]}, {"smiles": "Cc1cccc(C)c1OCC(C)N", "note": "(centres unmarked) [mexiletine, reference compound]", "values": [{"measurement": "Veratridine evoked CGRP release", "setting": "[3]", "value": "significantly reduced"}]}, {"smiles": "NC1=N[C@H](O)[C@H]2[C@H]3O[C@]4(O)O[C@@H]([C@@H](O)[C@@]2(N1)[C@@H]4O)[C@]3(O)CO", "note": "[TTX, tetrodotoxin]", "values": [{"measurement": "Effect on current remaining after A-803467", "setting": "[2]", "value": "abolished"}, {"measurement": "Effect on Aδ and C fiber EPSCs", "setting": "[6]", "value": "completely abolished"}]}]}
